Measurements published in patent US20120016019A1, “PHARMACEUTICAL COMPOSITION FOR TREATING OR PREVENTING CANCER” (priority 2010, published 2012).
“And” between values parts separate entries of the source, which are not always exact repeats. Identical values can stand only once. Like-named read-outs stand apart in the source and are kept apart here.

Columns and labels:
BJ = conditions: for The viability / The absorbance, group - Blank / The absorbance, Mean value / The absorbance: BJ; for The absorbance, group - Blank: mean minus blank; for The absorbance: single value; for The cytotoxicity: human, 220 nM
Experimental: (§1) Cancer cell lines HCC 1419, MCF-7, MDA-MB-468, SKBR3, PC3, HT1299, Saos-2, C-6, AsPc, MDA-MB-231, RKO, HeLa and TT, and normal cell lines HME 50 HT, BJ and CCD-1074sk were tested for changes in metabolism (XTT assay) and cell death (cell counts).
(§2) Cells were plated into 48-well Corning CellBind™ plates at densities of 20,000 cells for normal cells and 10,000˜20,000 cells for cancer cells. 24 to 48 h after plating, cells were treated with the composition according to the invention at concentrations of 4.5e-2M. The first time point treated with the composition of the invention is 0 h. At 3 days after the first treatment with the composition of the invention, medium was changed and the composition of the invention at the same concentrations were added to the cultured cells.
(§3) The XTT assay is an accepted analysis technique for viability and cytotoxicity of anticancer drugs or other pharmaceutical compositions. Cells were seeded in a 96-well tissue culture plate at a density of 10,000 cells for normal cells and 5,000 cells for cancer cells. After incubation period, the formazan dye formed was quantitated using an ELISA reader. The optimal wavelength used in experiments was 500 nm, and it was measured at 0 h, 12 h, 24 h, 48 h, 4 d and 7 d, respectively. The obtained values were generated using the software SoftMax Pro 4.8.
(§4) The cell viability was calculated according to the manufacturer's instructions as follows (the term “blank” means XTT in medium only):
(§5) Cellular cytotoxicity was calculated according to the manufacturer's instructions as follows: […]

SKBR3 = conditions: for The absorbance, Mean value / The absorbance, group - Blank / The absorbance: SKBR3, XTT 500 nm; for The absorbance: single wells
Experimental: as §1, §2, §3, §4, §5

PC-3 = conditions: for The absorbance, Mean value / The absorbance / The absorbance, group - Blank: PC-3, XTT 500 nm; for The absorbance: single wells
Experimental: as §1, §2, §3, §4, §5

In the case of `CC(=O)O[C@H]1C(=O)[C@@]2(C)[C@H]([C@H](OC(=O)c3ccccc3)[C@]3(O)C[C@H](OC(=O)[C@H](O)[C@@H](NC(=O)c4ccccc4)c4ccccc4)C(C)=C1C3(C)C)[C@]1(OC(C)=O)CO[C@@H]1C[C@@H]2O` [Taxol], the The viability (BJ; 1st week (LC50), 0 h) is reported as 0.6817, the “The absorbance, group - Blank” value (BJ; 1st week (LC50), 0 h) is reported as 0.9194 and the “The absorbance, Mean value” (BJ; 1st week (LC50), 0 h) is reported as 1.2407. For the same compound, the The absorbance (BJ; 1st week (LC50), 0 h) was 1.2557 and 1.2397 and 1.2268, the The viability (BJ; 1st week (LC50), 12 h) was 0.3531 and the “The absorbance, group - Blank” value (BJ; 1st week (LC50), 12 h) was 0.1792. For the same compound, the “The absorbance, Mean value” (BJ; 1st week (LC50), 12 h) was 0.5006, the The absorbance (BJ; 1st week (LC50), 12 h) was 0.504 and 0.4951 and 0.5027 and the The viability (BJ; 1st week (LC50), 24 h) was 0.1484. The “The absorbance, group - Blank” value (BJ; 1st week (LC50), 24 h) was 0.1674, the “The absorbance, Mean value” (BJ; 1st week (LC50), 24 h) was 0.4887 and the The absorbance (BJ; 1st week (LC50), 24 h) was 0.492 and 0.4863 and 0.4879. For the same compound, the The viability (BJ; 1st week (LC50), 48 h) was 0.6457, the “The absorbance, group - Blank” value (BJ; 1st week (LC50), 48 h) was 1.3032 and the “The absorbance, Mean value” (BJ; 1st week (LC50), 48 h) was 1.6245. For the same compound, the The absorbance (BJ; 1st week (LC50), 48 h) was 1.6877 and 1.5017 and 1.6842, the The viability (BJ; 1st week (LC50), 4 d) was 0.5117 and the “The absorbance, group - Blank” value (BJ; 1st week (LC50), 4 d) was 1.1564. The “The absorbance, Mean value” (BJ; 1st week (LC50), 4 d) was 1.4777, the The absorbance (BJ; 1st week (LC50), 4 d) was 1.4687 and 1.4879 and 1.4766 and the The viability (BJ; 1st week (LC50), 7 d) was 0.4809. For the same compound, the “The absorbance, group - Blank” value (BJ; 1st week (LC50), 7 d) was 1.0576, the “The absorbance, Mean value” (BJ; 1st week (LC50), 7 d) was 1.3790 and the The absorbance (BJ; 1st week (LC50), 7 d) was 1.3256 and 1.3677 and 1.4436. For the same compound, the The viability (BJ; 2nd week (recovery), 0 h) was 0.8858, the “The absorbance, group - Blank” value (BJ; 2nd week (recovery), 0 h) was 0.8852 and the “The absorbance, Mean value” (BJ; 2nd week (recovery), 0 h) was 1.2065. The The absorbance (BJ; 2nd week (recovery), 0 h) was 1.1468 and 1.2843 and 1.1885, the The viability (BJ; 2nd week (recovery), 24 h) was 2.1460 and the “The absorbance, group - Blank” value (BJ; 2nd week (recovery), 24 h) was 1.0893. The “The absorbance, Mean value” (BJ; 2nd week (recovery), 24 h) was 1.4107, the The absorbance (BJ; 2nd week (recovery), 24 h) was 1.3211 and 1.5144 and 1.3966 and the The viability (BJ; 2nd week (recovery), 48 h) was 0.1254. For the same compound, the “The absorbance, group - Blank” value (BJ; 2nd week (recovery), 48 h) was 0.1415, the “The absorbance, Mean value” (BJ; 2nd week (recovery), 48 h) was 0.4629 and the The absorbance (BJ; 2nd week (recovery), 48 h) was 0.451 and 0.4672 and 0.4704. For the same compound, the The viability (BJ; 2nd week (recovery), 4 d) was 0.7693, the “The absorbance, group - Blank” value (BJ; 2nd week (recovery), 4 d) was 1.5524 and the “The absorbance, Mean value” (BJ; 2nd week (recovery), 4 d) was 1.8738. For the same compound, the The absorbance (BJ; 2nd week (recovery), 4 d) was 1.8912 and 1.9201 and 1.8101, the The cytotoxicity (BJ; 12 h) was 0.6469 and the The cytotoxicity (BJ; 7 d) was 0.5191. For the same compound, the “The absorbance, Mean value” (SKBR3; 1st week (LC50), 0 h) was 0.3968, the “The absorbance, group - Blank” value (SKBR3; 1st week (LC50), 0 h) was 0.2164 and the The absorbance (SKBR3; 1st week (LC50), 0 h) was 0.4034 and 0.3885 and 0.3985. For the same compound, the “The absorbance, Mean value” (SKBR3; 1st week (LC50), 12 h) was 1.5205, the “The absorbance, group - Blank” value (SKBR3; 1st week (LC50), 12 h) was 1.3402 and the “The absorbance, group - Blank” value (SKBR3; 1st week (LC50), 24 h) was 1.8347. The “The absorbance, Mean value” (SKBR3; 1st week (LC50), 48 h) was 1.6721, the “The absorbance, group - Blank” value (SKBR3; 1st week (LC50), 48 h) was 1.4917 and the The absorbance (SKBR3; 1st week (LC50), 48 h) was 1.6738 and 1.629 and 1.7134. The “The absorbance, Mean value” (SKBR3; 1st week (LC50), 4 d) was 1.1935, the The absorbance (SKBR3; 1st week (LC50), 4 d) was 1.2586 and 1.1724 and 1.1494 and the “The absorbance, Mean value” (SKBR3; 1st week (LC50), 7 d) was 1.0281. The “The absorbance, group - Blank” value (SKBR3; 1st week (LC50), 7 d) was 0.8478, the The absorbance (SKBR3; 1st week (LC50), 7 d) was 0.9379 and 0.9708 and 1.1757 and the “The absorbance, Mean value” (SKBR3; 2nd week (recovery), 0 h) was 1.0435. The “The absorbance, group - Blank” value (SKBR3; 2nd week (recovery), 0 h) was 0.8631, the The absorbance (SKBR3; 2nd week (recovery), 0 h) was 1.0568 and 1.0836 and 0.99 and the “The absorbance, Mean value” (SKBR3; 2nd week (recovery), 24 h) was 1.1704. For the same compound, the “The absorbance, group - Blank” value (SKBR3; 2nd week (recovery), 24 h) was 0.9900, the The absorbance (SKBR3; 2nd week (recovery), 24 h) was 1.1654 and 1.3673 and 0.9784 and the “The absorbance, Mean value” (SKBR3; 2nd week (recovery), 48 h) was 1.0440. The “The absorbance, group - Blank” value (SKBR3; 2nd week (recovery), 48 h) was 0.8636, the The absorbance (SKBR3; 2nd week (recovery), 48 h) was 0.9057 and 0.8251 and 1.4012 and the “The absorbance, Mean value” (SKBR3; 2nd week (recovery), 4 d) was 1.2517. The “The absorbance, group - Blank” value (SKBR3; 2nd week (recovery), 4 d) was 1.0713, the The absorbance (SKBR3; 2nd week (recovery), 4 d) was 1.252 and 1.6151 and 0.888 and the “The absorbance, Mean value” (SKBR3; 2nd week (recovery), 7 d) was 0.9393. The “The absorbance, group - Blank” value (SKBR3; 2nd week (recovery), 7 d) was 0.7590, the The absorbance (SKBR3; 2nd week (recovery), 7 d) was 0.7048 and 1.1412 and 0.972 and the The cytotoxicity (SKBR3; human, 0 h, 220 nM) was −1.4298. It also gave a The viability (SKBR3; human, 12 h, 220 nM) of 0.7165, a The cytotoxicity (SKBR3; human, 24 h, 220 nM) of 0.4771 and a The cytotoxicity (SKBR3; human, 48 h, 220 nM) of 0.6010. For the same compound, the “The absorbance, Mean value” (PC-3; 1st week (LC50), 0 h) was 0.693, the The absorbance (PC-3; 1st week (LC50), 0 h) was 0.7147 and 0.7027 and 0.6625 and the “The absorbance, Mean value” (PC-3; 1st week (LC50), 12 h) was 0.567. For the same compound, the The absorbance (PC-3; 1st week (LC50), 12 h) was 0.5126 and 0.6101 and 0.5779, the “The absorbance, Mean value” (PC-3; 1st week (LC50), 24 h) was 0.692 and the “The absorbance, group - Blank” value (PC-3; 1st week (LC50), 24 h) was 0.5326. For the same compound, the The absorbance (PC-3; 1st week (LC50), 24 h) was 0.7192 and 0.6542 and 0.7011, the “The absorbance, Mean value” (PC-3; 1st week (LC50), 48 h) was 1.747 and the “The absorbance, group - Blank” value (PC-3; 1st week (LC50), 48 h) was 1.5885. The The absorbance (PC-3; 1st week (LC50), 48 h) was 1.9128 and 1.6455 and 1.6838, the “The absorbance, Mean value” (PC-3; 1st week (LC50), 4 d) was 1.266 and the “The absorbance, group - Blank” value (PC-3; 1st week (LC50), 4 d) was 1.1072. For the same compound, the The absorbance (PC-3; 1st week (LC50), 4 d) was 1.1723 and 1.5491 and 1.0768, the “The absorbance, Mean value” (PC-3; 2nd week (recovery), 0 h) was 0.5354 and the The absorbance (PC-3; 2nd week (recovery), 0 h) was 0.5937 and 0.5232 and 0.4893. The “The absorbance, Mean value” (PC-3; 2nd week (recovery), 24 h) was 1.6693, the “The absorbance, group - Blank” value (PC-3; 2nd week (recovery), 24 h) was 1.5104 and the The absorbance (PC-3; 2nd week (recovery), 24 h) was 1.3804 and 1.6987 and 1.9288. For the same compound, the “The absorbance, Mean value” (PC-3; 2nd week (recovery), 48 h) was 0.7660, the “The absorbance, group - Blank” value (PC-3; 2nd week (recovery), 48 h) was 0.6071 and the The absorbance (PC-3; 2nd week (recovery), 48 h) was 0.795 and 0.7948 and 0.7081. For the same compound, the “The absorbance, Mean value” (PC-3; 2nd week (recovery), 4 d) was 1.2875, the “The absorbance, group - Blank” value (PC-3; 2nd week (recovery), 4 d) was 1.1286 and the The cytotoxicity (PC-3; human, 12 h, 220 nM) was 0.5920. It also gave a The viability (PC-3; human, 12 h, 220 nM) of 0.3649.
